# Assays:
# [1] = (§1) The drug is tested on Z-011 corresponding to mouse gut metagenome with ENA study accession number: PRJEB37062 and ENA sample accession number: ERS12561811 for biotransformation under anaerobic condition. The drug concentrations were measured over 9 timepoints collected between 0 and 24 hours of incubation by liquid-chromatography-coupled mass spectrometry (LC–MS); conditions: 2 µM
# [2] = as §1, with “WLS-038” for “Z-011”, “human” for “mouse”, “ERS12561745” for “ERS12561811”; conditions: 2 µM
# [3] = human gut metagenome, 24 h, 2 µM
# [4] = as §1, with “Z-029” for “Z-011”, “rat” for “mouse”, “ERS12561828” for “ERS12561811”; conditions: 2 µM
# [5] = as §1, with “WLS-090” for “Z-011”, “human” for “mouse”, “ERS12561753” for “ERS12561811”; conditions: 2 µM
# [6] = human gut metagenome, 24 h, 2 µM; remark: listed apart in the source
# [7] = as §1, with “WLS-027” for “Z-011”, “human” for “mouse”, “ERS12561744” for “ERS12561811”; conditions: 2 µM
# [8] = human gut metagenome, 24 h, 2 µM; remark: listed apart in the source
# [9] = as §1, with “Z-022” for “Z-011”, “ERS12561821” for “ERS12561811”; conditions: 2 µM
# Further: call rule not given here.
Structure (SMILES),Bacterial Biotransformation [1],Bacterial Biotransformation [2],Bacterial Biotransformation [3],Bacterial Biotransformation [4],Bacterial Biotransformation [5],Bacterial Biotransformation [6],Bacterial Biotransformation [7],Bacterial Biotransformation [8],Bacterial Biotransformation [9]
CCCN(CCC)CCc1cccc2c1CC(=O)N2 [ROPINIROLE],Compound NOT metabolized,Compound NOT metabolized,Compound NOT metabolized,Compound NOT metabolized,Compound metabolized,Compound NOT metabolized,Compound NOT metabolized,Compound metabolized,Compound NOT metabolized
CN[C@H]1CC[C@@H](c2ccc(Cl)c(Cl)c2)c2ccccc21 [SERTRALINE],Compound metabolized,Compound metabolized,Compound NOT metabolized,Compound NOT metabolized,Compound metabolized,Compound NOT metabolized,Compound metabolized,Compound metabolized,Compound NOT metabolized
O=C(O)CCC(=O)O.O=C(O[C@H]1CN2CCC1CC2)N1CCc2ccccc2[C@@H]1c1ccccc1 [SOLIFENACIN SUCCINATE],Compound NOT metabolized,Compound metabolized,Compound metabolized,Compound NOT metabolized,Compound metabolized,Compound NOT metabolized,Compound metabolized,Compound metabolized,Compound metabolized
O=C(CCCN1CCC2(CC1)C(=O)NCN2c1ccccc1)c1ccc(F)cc1 [SPIPERONE],Compound NOT metabolized,Compound NOT metabolized,Compound metabolized,Compound NOT metabolized,Compound NOT metabolized,Compound NOT metabolized,Compound NOT metabolized,Compound metabolized,Compound NOT metabolized
O=C1C(CC[S+]([O-])c2ccccc2)C(=O)N(c2ccccc2)N1c1ccccc1 (centres undefined) [SULFINPYRAZONE],Compound NOT metabolized,Compound metabolized,Compound metabolized,Compound NOT metabolized,Compound metabolized,Compound metabolized,Compound metabolized,Compound metabolized,Compound NOT metabolized
CCOc1ccccc1OCCN[C@H](C)Cc1ccc(OC)c(S(N)(=O)=O)c1.Cl [TAMSULOSIN HYDROCHLORIDE],Compound NOT metabolized,Compound NOT metabolized,Compound NOT metabolized,Compound NOT metabolized,Compound metabolized,Compound NOT metabolized,Compound NOT metabolized,Compound metabolized,Compound NOT metabolized
COc1cc2nc(N3CCN(C(=O)C4CCCO4)CC3)nc(N)c2cc1OC (centres undefined) [TERAZOSIN],Compound metabolized,Compound NOT metabolized,Compound NOT metabolized,Compound NOT metabolized,Compound metabolized,Compound NOT metabolized,Compound NOT metabolized,Compound metabolized,Compound NOT metabolized
c1ccc2[nH]c(-c3cscn3)nc2c1 [THIABENDAZOLE],Compound NOT metabolized,Compound NOT metabolized,Compound NOT metabolized,Compound NOT metabolized,Compound metabolized,Compound NOT metabolized,Compound NOT metabolized,Compound metabolized,Compound NOT metabolized
CCN(CC)CCNC(=O)c1cc(S(C)(=O)=O)ccc1OC [TIAPRIDE],Compound metabolized,Compound NOT metabolized,Compound NOT metabolized,Compound NOT metabolized,Compound metabolized,Compound NOT metabolized,Compound NOT metabolized,Compound metabolized,Compound NOT metabolized
CC(C)(C)NC[C@H](O)COc1nsnc1N1CCOCC1.O=C(O)/C=C\C(=O)O [TIMOLOL MALEATE],Compound NOT metabolized,Compound NOT metabolized,Compound NOT metabolized,Compound NOT metabolized,Compound NOT metabolized,Compound NOT metabolized,Compound NOT metabolized,Compound NOT metabolized,Compound NOT metabolized
CC[C@@]1(O)C(=O)OCc2c1cc1n(c2=O)Cc2cc3c(CN(C)C)c(O)ccc3nc2-1 [TOPOTECAN],Compound NOT metabolized,Compound NOT metabolized,Compound NOT metabolized,Compound NOT metabolized,Compound NOT metabolized,Compound NOT metabolized,Compound NOT metabolized,Compound NOT metabolized,Compound NOT metabolized
COc1cc(C(=O)NCc2ccc(OCCN(C)C)cc2)cc(OC)c1OC [TRIMETHOBENZAMIDE],Compound NOT metabolized,Compound NOT metabolized,Compound NOT metabolized,Compound NOT metabolized,Compound NOT metabolized,Compound NOT metabolized,Compound NOT metabolized,Compound NOT metabolized,Compound NOT metabolized
COc1ccc(C(CN(C)C)C2(O)CCCCC2)cc1 (centres undefined) [VENLAFAXINE],Compound NOT metabolized,Compound NOT metabolized,Compound NOT metabolized,Compound NOT metabolized,Compound NOT metabolized,Compound NOT metabolized,Compound NOT metabolized,Compound metabolized,Compound NOT metabolized
CCOC(=O)C1=C[C@]2(CC)CCCN3CCc4c(n1c1ccccc41)[C@@H]32 [VINPOCETINE],Compound NOT metabolized,Compound NOT metabolized,Compound NOT metabolized,Compound NOT metabolized,Compound metabolized,Compound NOT metabolized,Compound metabolized,Compound metabolized,Compound metabolized
C[C@@H](c1ncncc1F)[C@](O)(Cn1cncn1)c1ccc(F)cc1F [VORICONAZOLE],Compound NOT metabolized,Compound metabolized,Compound NOT metabolized,Compound metabolized,Compound metabolized,Compound metabolized,Compound metabolized,Compound metabolized,Compound metabolized
CCN(C(C)=O)c1cccc(-c2ccnc3c(C#N)cnn23)c1 [ZALEPLON],Compound NOT metabolized,Compound metabolized,Compound metabolized,Compound NOT metabolized,Compound metabolized,Compound NOT metabolized,Compound metabolized,Compound metabolized,Compound NOT metabolized

# From ChEMBL document CHEMBL5724914, “Linking interpersonal differences in gut microbiota composition and drug biotransformation activity” (2024)
